Where two headings read alike, the source gives them in different places. Marks after values point to notes of the source that are not given here.
How the values were obtained:
[1] = test system: human ovarian cancer cells 2008; test: MTT cytotoxicity assay, 72 h, 2008
Description: (§1) Human breast (MCF-7), lung (H157), pancreatic (PSN-1) and colon (HCT-15 and LoVo) carcinoma cell lines were obtained from the American Type Culture Collection (ATCC, Rockville, MD). A431 are human cervical carcinoma cells kindly provided by Prof. F. Zunino (Molecular Pharmacology Unit, Experimental Oncology and Molecular Medicine, Istituto Nazionale dei Tumori, Milan, Italy). […] G. Marverti (Dept. of Biomedical Science, University of Modena, Italy).
(§2) Briefly, depending upon the growth characteristics of the cell line, 3-8×10^3 cells well^−1, were seeded in 96-well microplates in growth medium (100 μL) and then incubated at 37° C. in a 5% carbon dioxide atmosphere. After 24 h, the medium was removed and replaced with a fresh one containing the compound to be studied, at the appropriate concentration, dissolved in 0.9% sodium chloride solution just before use. Triplicate cultures were established for each treatment. After 72 h, each well was treated with 10 μL of a 5 mg mL^−1 MTT saline solution and, after 5 h of incubation, 100 μL of a sodium dodecylsulfate (SDS) solution in 0.01 M HCl were added. After an overnight incubation, the inhibition of cell growth induced by the tested complexes was determined by measuring the absorbance of each well at 570 nm using a Bio-Rad 680 microplate reader. Mean absorbance for each drug dose was expressed as percentage of the control and plotted vs. drug concentration. Dose-response curves were fitted and IC50 values were calculated with four parameter logistic model (4PL).
(§3) The cytotoxicity was evaluated by means of the MTT test for 72 h treatment with increasing concentrations of the tested compounds.
(§4) Cytotoxic activity was examined against a panel of human tumor cell lines. […] The growth inhibitory effect was evaluated by means of MTT test. Cells (5-8×10^3 mL^−1, depending on the growth characteristics of the cell line) were treated for 72 h with increasing concentrations of tested compounds. […] SD=standard deviation, -=not detected.
as §3, §4

[2] = test system: human breast carcinoma cells MCF-7; test: MTT cytotoxicity assay, 72 h, MCF-7; type: cell-based; settings: MTT test, mean ± SD
Description: as §1, §2, §3, §4

[3] = test system: human lung carcinoma cells H157; test: MTT cytotoxicity assay, 72 h, H157; type: cell-based; settings: MTT test, mean ± SD
Description: as §1, §2, §3, §4

[4] = test system: human colon carcinoma cells HCT-15; test: MTT cytotoxicity assay, 72 h, HCT-15; type: cell-based; settings: MTT test, mean ± SD
Description: as §1, §2, §3, §4

[5] = test system: human pancreatic carcinoma cells PSN-1; test: MTT cytotoxicity assay, 72 h, PSN-1; type: cell-based; settings: MTT test, mean ± SD
Description: as §1, §2, §3, §4

[6] = test system: human colon cancer cells LoVo; test: MTT cytotoxicity assay, 72 h, LoVo; type: cell-based; settings: MTT test, mean ± SD
Procedure: Triplicate cultures were established for each treatment.
(§5) . A LoVo cell line retaining a multidrug resistance phenotype was also considered (LoVo MDR). Cross-resistance profiles were evaluated by means of the resistance factor (RF), which is defined as the ratio between the IC50 value for the resistant cells and that arising from the sensitive cells (Table 3).
Cytotoxicity was assessed by MTT test. […]. Resistant Factor (in brackets) is defined as IC50 resistant/parent line.

LoVo MDR cells = test: MTT cytotoxicity assay, 72 h, LoVo MDR (multidrug resistant); type: cell-based, human; settings: MTT test, mean ± SD
Description: as §1, §2
as §5, with “A” for “. A”
Cells (5×10^3 mL-1) were treated for 72 h with increasing concentrations of tested compounds. Cytotoxicity was assessed by MTT test. […] Resistant Factor (in brackets) is defined as IC50 resistant/parent line. […]

[7] = test system: human cervical carcinoma cells A431; test: MTT cytotoxicity assay, 72 h, A431; type: cell-based; settings: MTT test, mean ± SD
Description: as §1, §2, §3, §4

LoVo-OXP cells = test: MTT cytotoxicity assay, 72 h, LoVo-OXP (oxaliplatin resistant); type: cell-based, human; settings: MTT test, mean ± SD
Description: as §1, §2
as §5, with “A” for “. A”
Cells (5×10^3 mL-1) were treated for 72 h with increasing concentrations of tested compounds. Cytotoxicity was assessed by MTT test. […] Resistant Factor (in brackets) is defined as IC50 resistant/parent line.

[8] = Procedure: (§6) The mice were purchased from Charles River, Italy, housed in steel cages under controlled environmental conditions (constant temperature, humidity, and 12 h dark/light cycle), and alimented with commercial standard feed and tap water ad libitum. Animals were observed daily, and body weight and food intake recorded. The Lewis lung carcinoma (LLC) cell line was purchased from ECACC, UK. The LLC cell line was maintained in D-MEM (Euroclone) supplemented with 10% heat-inactivated FBS (Euroclone), 10 mM L-glutamine, 100 U mL^−1 penicillin, and 100 μg mL^−1 streptomycin in a 5% CO2 air incubator at 37° C. […] At day 15, animals were sacrificed, the legs were amputated at the proximal end of the femur, and the inhibition of tumor growth was determined according to the difference in weight of the tumor-bearing leg and the healthy leg of the animals expressed as % referred to the control animals. Body weight was measured every two days and was taken as a parameter for systemic toxicity. All the values are the means±S.D. of not less than three measurements. Multiple comparisons were made by Tukey-Kramer test (** p<0.01; * p or °p<0.05).
(§7) For the assessment of the adverse side effects, changes in body weights of tumor-bearing mice were monitored daily (FIG. 1).

[9] = test system: murine Lewis lung carcinoma (LLC); test: In vivo anticancer activity toward Lewis lung carcinoma; parameters: species or system C57BL mice; settings: for Average tumor weight (mean ± SD, g) / Inhibition of tumor growth (%): daily i.p. from day 9, measured at day 15, 6: 5 mg kg^−1, 9: 3 mg kg^−1, cisplatin: 1.5 mg kg^−1; for Inhibition of tumor growth (%): referred to control animals
Procedure: as §6, §7
Starting from day 9 after tumor implantation, tested compounds were daily administered i.p. At day 15, mice were sacrified and tumor growth was detected as described above.

[10] = test system: panel of human tumor cell lines; test: Average cytotoxic activity over the cell panel (MTT) compared with reference drugs; settings: on average over the cell panel
Procedure: as §2, §3
Cytotoxic activity was examined against a panel of human tumor cell lines. […] The growth inhibitory effect was evaluated by means of MTT test. […] SD=standard deviation, -=not detected.

[11] = read-out: IC50 2008, MTT test, mean ± SD, Table 2
[12] = read-out: IC50 2008, MTT test, mean ± SD, Table 1

Row | Molecule | IC50 [1, 11] [µM] | IC50 [2] [µM] | IC50 [3] [µM] | IC50 [4] [µM] | IC50 [5] [µM] | IC50 [6] [µM] | IC50 [1, 12] [µM] | IC50 (LoVo MDR cells) [µM] | IC50 [7] [µM] | IC50 (LoVo-OXP cells) [µM] | other results
1 | F[B-](F)(F)F.Oc1ccccc1P(c1ccccc1)c1ccccc1.Oc1ccccc1P(c1ccccc1)c1ccccc1.[Cu+] [Compound 12, Bis[diphenyl(2-hydroxyphenyl)phosphine] copper(I)tetrafluoroborate] | 1.1 ± 0.3 | – | – | – | – | – | – | – | – | – | –
2 | Bis[tris(phenylphosphine)] copper(I) nitrate [Compound 1] | – | 1.9 ± 0.7 | 1.6 ± 0.1 | 1.8 ± 0.8 | 4.5 ± 1.8 | 0.4 ± 0.03 | 2.2 ± 0.1 | 0.5 ± 0.2 | 0.2 ± 0.01 | 0.3 ± 0.1 | –
3 | F[B-](F)(F)F.O=C(O)c1ccccc1P(c1ccccc1)c1ccccc1.O=C(O)c1ccccc1P(c1ccccc1)c1ccccc1.[Cu+] [Compound 10, Bis[2-(diphenylphosphanyl)benzoic acid]copper(I) tetrafluoroborate] | – | 1.1 ± 0.2 | 0.9 ± 0.1 | 1.8 ± 0.6 | 0.6 ± 0.01 | 1.5 ± 0.4 | 0.3 ± 0.1 | 0.9 ± 0.4 | 3.8 ± 1.1 | 0.09 ± 0.03 | –
4 | Bis[tris(4- methylphenyl)phosphine] copper(I) nitrate [Compound 2] | – | 3.1 ± 0.6 | 3.4 ± 0.2 | 0.5 ± 0.2 | 0.3 ± 0.08 | 1.4 ± 0.1 | 1.3 ± 0.3 | 0.9 ± 0.6 | 3 ± 1.4 | 1.3 ± 0.5 | –
5 | Bis[tris(4- fluorophenyl)phosphine] copper(I) nitrate [Compound 4] | – | 1.4 ± 0.3 | 0.9 ± 0.1 | 1.1 ± 0.5 | 6.2 ± 0.9 | 0.9 ± 0.3 | 1.9 ± 0.5 | 1 ± 0.1 | 0.8 ± 0.6 | 0.7 ± 0.1 | –
6 | COc1cccc2c1C(=O)c1c(O)c3c(c(O)c1C2=O)C[C@@](O)(C(=O)CO)C[C@@H]3O[C@H]1C[C@H](N)[C@H](O)[C@H](C)O1 [doxorubicin, reference compound] | – | – | – | – | – | – | – | – | – | – | IC50 ([6]; Homo sapiens, LoVo): 1.1 ± 0.5 µM; IC50 (LoVo MDR cells; Homo sapiens, LoVo): 19.4 ± 2.2 µM
7 | Bis[tris(morpholineN- methyl)phosphine]copper(I) tetrafluoroborate [Compound 7] | – | 6.1 ± 1.5 | 8.4 ± 1.8 | 6.4 ± 0.5 | 12.3 ± 1.5 | 0.6 ± 0.3 | 9.2 ± 1 | 0.4 ± 0.3 | 15 ± 2.2 | 0.4 ± 0.2 | –
8 | N.N.[Cl][Pt][Cl] [cisplatin, cis-diamminedichloroplatinum(II), reference compound] | 2.2 ± 0.5 | 7.6 ± 0.2 | 2.1 ± 0.9 | 15.3 ± 2.6 | 18.3 ± 3.1 | – | 2.2 ± 0.5 | – | 2.1 ± 0.8 | – | body weight loss ([8]; mouse, in vivo, ip): > 20%; Average tumor weight (mean ± SD, g) [9]: 0.119 ± 0.10** g; Inhibition of tumor growth (%) [9]: 79.8%
9 | Bis[tris(N-EthylpiperazineN′- methyl)phosphine]copper(I) tetrafluoroborate [Compound 6] | – | 3.1 ± 0.9 | 3.8 ± 0.3 | 2.5 ± 0.1 | 13.3 ± 3.2 | 0.7 ± 0.3 | 14.5 ± 1.2 | 1.2 ± 0.9 | 7.7 ± 0.5 | 1.3 ± 0.5 | Average tumor weight (mean ± SD, g) [9]: 0.142 ± 0.09** g; Inhibition of tumor growth (%) [9]: 75.9%
10 | Bis[tris(N-methylpiperazineN′- methyl)phosphine]copper(I) tetrafluoroborate [Compound 5] | – | – | 4.3 ± 1.2 | 8 ± 2.6 | 7.3 ± 1.4 | – | 5.2 ± 1.7 | – | – | – | –
11 | Bis[tris(thiomorpholineN- methyl)phosphine]copper(I) tetrafluoroborate [Compound 8] | – | – | 5.3 ± 1.2 | 10.2 ± 0.1 | 7.7 ± 1.3 | – | 11.9 ± 0.1 | – | – | – | –
12 | F[B-](F)(F)F.O=S(=O)(O)c1ccccc1P(c1ccccc1)c1ccccc1.O=S(=O)(O)c1ccccc1P(c1ccccc1)c1ccccc1.[Cu+] [Compound 14, Bis[2-(diphenylphosphino]benzenesulfonic acid]copper(I) tetrafluoroborate] | 0.8 ± 0.2 | – | – | – | – | – | – | – | – | – | –
13 | F[B-](F)(F)F.O=Cc1ccccc1P(c1ccccc1)c1ccccc1.O=Cc1ccccc1P(c1ccccc1)c1ccccc1.[Cu+] [Compound 9, Bis[2-(diphenylphosphanyl)benzaldehyde]copper(I) tetrafluoroborate] | – | 1.3 ± 0.3 | 1.5 ± 0.2 | 0.8 ± 0.2 | 1.1 ± 0.5 | 0.6 ± 0.2 | 0.6 ± 0.1 | 0.8 ± 0.5 | 4.7 ± 0.6 | 1.1 ± 0.6 | average cytotoxic activity relative to cisplatin ([10]; times more effective than cisplatin): 4.8 times; average cytotoxic activity relative to oxaliplatin ([10]; times more effective than oxaliplatin): 3.8 times; tolerability compared with cisplatin ([8]; doses 5 and 3 mg kg^−1 represent ⅓ of the MTD): better tolerated than cisplatin; reduction of the tumor mass ([9]; 3 mg kg^−1 daily i.p., day 15): 83%; Average tumor weight (mean ± SD, g) [9]: 0.098 ± 0.06** g; Inhibition of tumor growth (%) [9]: 83.4%
14 | COCOc1ccccc1P(c1ccccc1)c1ccccc1.COCOc1ccccc1P(c1ccccc1)c1ccccc1.F[B-](F)(F)F.[Cu+] [Compound 13, Bis[diphenyl(2-(methoxymethoxy)phenyl)phosphine] copper(I)tetrafluoroborate] | 1.5 ± 0.4 | – | – | – | – | – | – | – | – | – | –
15 | O=C1[O][Pt]2([NH][C@@H]3CCCC[C@H]3[NH]2)[O]C1=O [oxaliplatin, cyclohexane-1,2-diamineethanedioatoplatinum(II), reference compound] | 1.7 ± 1 | 3.4 ± 1.2 | 11.8 ± 3.2 | 1.3 ± 0.3 | 16.1 ± 2.5 | 3.1 ± 0.3 | 1.7 ± 1 | 1.4 ± 0.8 | 3.7 ± 1 | 17.5 ± 1.8 | –
16 | Bis[tris(4- methoxyphenyl)phosphine] copper(I) nitrate [Compound 3] | – | 1.3 ± 0.4 | 1.2 ± 0.01 | 0.3 ± 0.2 | – | – | 0.5 ± 0.1 | 0.9 ± 0.2 | 3.1 ± 1.1 | – | –
17 | COc1ccccc1P(c1ccccc1)c1ccccc1.COc1ccccc1P(c1ccccc1)c1ccccc1.F[B-](F)(F)F.[Cu+] [Compound 11, Bis[diphenyl(2-methoxyphenyl)phosphine] copper(I)tetrafluoroborate] | 0.4 ± 0.3 | – | – | – | – | – | – | – | – | – | cytotoxicity against human ovarian cancer cells compared with cisplatin and oxaliplatin ([1]; 2008 cells, MTT): the most cytotoxic derivative
